Details: UPLC quantification of cordycepin; variable mass ratios; FIG. 2

Nc1ncnc2c1ncn2[C@@H]1O[C@H](CO)C[C@H]1O [Cordycepin, 3′-deoxyadenosine]
solubility of Cordycepin in Cordyceps extract, TPGS solution vs pure water: did not increase the solubility
